# What was measured:
# HSV-1 strain 17+ = test: HSV encephalitis (HSE) survival model, corneal scarification; assay type: in vivo, mouse
# Method: 129S6 Wild Type (WT), 129 FoxP3-GFP and IL-10 knock-out (KO) mice were bred. Male and female mice aged 6-10 weeks were infected with HSV-1 strain 17+ (HSV).
# Prophylactic administration: six doses of 50 μg of PSA in sterile PBS was given as indicated-orally (PO), or intra-peritoneally (IP) over 3 weeks prior to HSV infection. Additionally, six doses of PSA were given IP on 9 days before HSV infection, 6 days before HSV infection, 3 days before HSV infection, day 0 of HSV infection (i.e., on the day of infection), 2 days post-infection, and 4 days post-infection. Mice received either PBS or the anti-viral drug acyclovir (ACV) from day 4 to 10 post-infection at 50 mg/kg. Therapeutic administration: PSA was administered on days 1, 3 and 6 post HSV infection by PO, IP or intravenous injection (IV) along with ACV beginning day 4-10 post-infection (pi).
# The post-infection therapeutic regimen included PSA administered day 1, day 3, day 6 post-infection, with ACV administered from day 4 post-infection. At day 4 post-HSV infection, 1.25 mg of ACV was given per mouse by IP injections daily for 7 days. […] 129 WT or Rag mice were given PSA as indicated in FIG. 3A prior to the infection. ACV was given starting at day 4 post-infection (FIG. 3B).
# T and B cells = test: Immune cell analysis in uninfected WT mice during/after oral PSA treatment; assay type: in vivo, mouse
# Text: PSA increases IL-10 secreting T and B cells, as depicted in FIGS. 14A-14B.
# Line plots showing CD39, CD73 and ICOS surface expression on CD4 and CD8 T cells isolated from mesenteric LN (MLN) of uninfected WT mice at indicated times during oral PSA treatment are depicted in FIGS. 16A-16B. FIG. 16A depicts CD4 T cells isolated from MLN of uninfected WT mice at indicated times during oral PSA treatment. FIG. 16B depicts CD8 T cells isolated from MLN of uninfected WT mice at indicated times during oral PSA treatment.
# [1] = tested on: DCs, PMNs, CD45+ intra-epithelial lymphocytes; test: Binding of fluorescent PSA to immune cells after oral gavage; assay type: in vivo, mouse; details: ileum of 129 WT or Rag mice
# monocytes = test: Monocyte degranulation (CD107a/b), blood and spleen of treated HSV infected mice; details: monocytes from blood and spleen, day 6 post-infection
# HSV 17+ strain = test: Flow cytometry of infiltrating leukocytes in brainstem (CNS inflammation) at day 6 pi
# B cells = test: Splenic B cell phenotype in treated HSV infected mice; assay type: in vivo, mouse; details: six oral doses of PSA, ACV from day 4 pi, spleen day 6 pi
# T cells = test: Flow cytometry of T cells (phenotype, tetramer, intracellular cytokines) from treated HSV infected mice
molecule,measurement,setting,value
"Nc1nc2c(ncn2COCCO)c(=O)[nH]1 [ACV, acyclovir, reference compound]",prevention of lethal HSV encephalitis (HSE),"HSV-1 strain 17+; 129 WT mice, ACV given at day 4 post infection",Cannot Prevent Lethal HSV Encephalitis (HSE)
Bacteroides fragilis (B. fragilis) capsular polysaccharide A (PSA),IL-10 secreting T and B cells,T and B cells; MLN and spleen of uninfected WT mice after 6 doses of oral PSA,increases
same,"accumulation of regulatory T cells (CD39, CD73, ICOS expression)",T and B cells; mesenteric lymph nodes of uninfected WT mice during oral PSA treatment,increases accumulation
same,IL-10 secretion from PSA stimulated CD45+ IEL,[1],induce IL-10 secretion by CD45+ IEL T cells in wild type but not Rag mice
same,degranulation of monocytes following stimulation with HSV antigen,monocytes,limited degranulation
same,spontaneous degranulation of monocytes,monocytes,reduced spontaneous degranulation
same,"CNS inflammation (% CD45high infiltrates, Ly6Chigh CD11b+ inflammatory monocytes in brainstem)","HSV 17+ strain; 129 Rag mice, ACV from day 4 pi, brainstem day 6 pi",does not reduce CNS inflammation
same,CNS inflammation (infiltrating leukocytes in brainstem),"HSV 17+ strain; 129 WT mice, ACV from day 4 pi, brainstem day 6 pi",reducing CNS inflammation
same,CD8+ in brainstem that were CD103+,"HSV 17+ strain; 129 WT mice, brainstem",majority
same,CD8+ virus specific based on tetramer staining,"HSV 17+ strain; 129 WT mice, brainstem",Greater than 70%
same,splenic B cell phenotype (CD138),B cells,the majority of B cells express a highly activated secretory plasmablast phenotype
same,"survival of PSA treated B cell knockout mice or 129 Rag recipients of CD4 T cells, CD8 T cells or B cells","HSV-1 strain 17+; HSV 17+ strain, ACV from day 4 pi",B cells and T cells are essential for PSA mediated protection
same,protection against HSV infection,"HSV-1 strain 17+; PSA IP therapeutically day 1, day 3, day 6 with ACV from day 4 post-infection",also did not protect against HSV infection
same,development of fatal HSE,"HSV-1 strain 17+; mice pretreated with purified PSA prior to the HSV-1 infection, control PBS",prevented the development of fatal HSE
same,protection against HSV infection,"HSV-1 strain 17+; six doses of 50 μg PSA prior to and during infection (or day -8 to +4 regimen, or day 1, 3, 6 pi), ACV 1.25 mg IP daily for 7 days from day 4 pi",did not protect against HSV infection
same,CD4+ ICOS+ T cells in the spleen,"T cells; 129 WT mice, spleen",56%
same,CD4+ ICOS+ T cells that produced IL-10,T cells; PMA+ ionomycin stimulation,Approximately 10%
same,"phenotype of FoxP3 Tregs (CD25, CD103)","T cells; cervical lymph nodes, HSV infected WT mice, ACV from d4, day 6 pi",functional phenotype
same,CD62Llow CD4 T cells that were ICOS+,"T cells; oral PSA, blood and spleen, day 6 post-infection",56%
same,virus specific spleen CD8 T cells that were CD103+,"T cells; six oral doses of PSA, ACV from day 4, spleen day 6 post-infection",> 70%
same,CD4s that secrete IL-10 in response to stimulation,"T cells; six oral doses of PSA, ACV from day 4, spleen day 6 post-infection, PMA+ionomycin",about 11%
same,frequency of Tregs,T cells; spleen or BS,No change

# Source: patent US10765696B2, “Compositions of and methods of treatment with zwitterionic polysaccharide” (City of Hope, priority 2015, dated 2020)
